Values quoted from earlier work in article PMC3671928 (Analytical chemistry, 2013).

Assays:
[1] = molecular target: leucine aminopeptidase (LAP); details: read-out: IC50, leucine aminopeptidase (LAP)
[2] = molecular target: puromycin-sensitive aminopeptidase (PuSA); details: read-out: IC50, puromycin-sensitive aminopeptidase (PuSA)
aminopeptidase N = details: read-out: IC50, aminopeptidase N
peptidase activity = details: 1 μM applied to cells for 24 h
U937 cells = details: prolonged exposure to 1 μM

Question: Which results are given for `CC(C)C[C@@H](C(=O)N[C@H](C(=O)OC1CCCC1)c1ccccc1)[C@H](O)C(=O)NO` [Tosedostat]?
Answer: IC50 [1]: 100 nM; IC50 [2]: 150 nM; IC50 (aminopeptidase N): 220 nM; inhibition of fragmentation of a fluorogenic substrate (peptidase activity): approximately 50%; effect on proliferation of U937 cells (U937 cells): substantially inhibits proliferation
